Source: US20240148671A1, “METHODS FOR IMPROVING POULTRY HEALTH” (CORNELL UNIVERSITY, priority 2021, published 2024)
Marks after values point to notes of the source that are not given here.

Key:
cecal microbiome = assay: 16S rRNA gene sequencing of the cecal microbiota; assay type: in vivo, Gallus gallus; conditions: cecal content at hatch
Description: (§1) The pure resveratrol and pterostilbene were individually diluted in 18 MΩ H2O. The intra-amniotic administration followed the methodology previously described. On the 17th day of embryonic development, the eggs with viable embryos (n=60) were randomly allocated into 6 groups (n=10) with a similar weight frequency distribution. For the intra-amniotic treatment, 1 mL of solution per egg was injected into the amniotic fluid (via candling) with the aid of a 21-gauge needle. After the procedure, the injection sites were sealed with cellophane tape, and the eggs were distributed into six groups: (1) no injection; (2) 18 MΩ H2O; (3) 5% inulin; (4) 5% resveratrol; (5) 5% pterostilbene; and (6) synergistic: 4.75% resveratrol and 0.25% pterostilbene. […] The eggs were equally distributed in each incubator location to reduce possible allocation bias. Upon hatching (21 days), the hatchlings were euthanized by CO2 exposure, and the blood, liver, heart, pectoral muscle, small intestine and cecum were obtained.
As was formerly described, cecal samples were used to extract microbial genomic DNA (PowerSoil DNA isolation kit, MoBio Laboratories Ltd., Carlsbad, CA, USA). […] The PCR products were purified (Beckman Coulter, Atlanta, GA, USA) and quantified (Quant-iT PicoGreen dsDNA quantitation kit, Invitrogen, Carlsbad, CA, USA). […]
The 16S rRNA gene sequence analysis was performed using QIIME2 as previously described. The sequence reads were demultiplexed by per-sample barcodes, and the Divisive Amplicon Denoising Algorithm (DADA2) was used to correct the Illumina-sequenced amplicon read errors. […] The alpha and β diversity were calculated from samples containing at least 9.800 sequences. The alpha diversity parameter, a measure of the richness of the bacterial community, was calculated using the Shannon Index, and the beta diversity was assessed by a Jaccard similarity distance matrix. […]
The values in this paper were expressed as means and standard errors of the means (SEM). […] The results were analyzed by Analysis of Variance (ANOVA). […]

hemoglobin (Hb) = assay: Blood hemoglobin (Hb) after intra-amniotic administration; assay type: in vivo, Gallus gallus
Description: as §1
Blood was collected using micro-hematocrit heparin-coated capillary tubes (Fisher Scientific, Waltham, MA, USA). The hemoglobin (Hb) concentration was assessed spectrophotometrically using the QuantiChrom™ Hb Assay (DIHB-250, BioAssay Systems, Hayward, CA, USA) and according to specific instructions.

Oc1ccc(C=Cc2cc(O)cc(O)c2)cc1 [5% Resveratrol, Resveratrol]
β diversity of the cecal microbiome (Jaccard distances), comparison between groups (cecal microbiome; n=5, 5% inulin vs all other experimental groups (p<0.01), 5% pterostilbene vs 18 MΩ H2O control (p<0.05), stilbene groups among each other): strong clustering | Most differentially enriched taxa (LEfSe) vs no injection control (cecal microbiome; compared with the no injection control group, p<0.05 (FIGS. 5A-5B)): Enterobacteriales order and Enterobacteriaceae family | Hb (g/dL) (hemoglobin (Hb); intra-amniotic 1 mL/egg on day 17, blood at hatch (day 21), mean ± SEM): 9.71 ± 0.53^a g/dL | Hb concentration, comparison between groups (hemoglobin (Hb); synergistic vs the controls and other treatment groups (p<0.05), 5% resveratrol and 5% pterostilbene vs the control groups): no difference
